From US20240208964A1, “PYRIDOPYRIMIDINES AND METHODS OF THEIR USE” (PYRIDOPYRIMIDINES AND METHODS OF THEIR USE, priority 2020, published 2024)
pIC50: −log10 of the molar value. Read-outs that look alike come from different tables or passages of the source.

Columns and labels:
[1] = test system: PIKFYVE TDP-43 yeast strain; assay: Propidium iodide viability assay in PIKFYVE TDP-43 yeast strain; assay type: cell-based; conditions: Saccharomyces cerevisiae; reduction in PI-positive cells, 24 hours, up to 15 μM
Text: Generation of TDP-43 yeast model expressing human PIKfyve. Human PIKFYVE (“entry clone”) was cloned into pAG416GPDccdB (“destination vector”) according to standard Gateway cloning protocols (Invitrogen, Life Technologies). The resulting pAG416GPD-PIKFYVE plasmids were amplified in E. coli and plasmid identity confirmed by restriction digest and Sanger sequencing. Lithium acetate/polyethylene glycol-based transformation was used to introduce the above PIKFYVE plasmid into a BY4741 yeast strain auxotrophic for the ura3 gene and deleted for two transcription factors that regulate the xenobiotic efflux pumps, a major efflux pump, and FAB1, the yeast ortholog of PIKFYVE (MATa, snq2::KILeu2; pdr3::Klura3;pdrl::NATMX; fab1::G418^R, his3;leu2;ura3;met15;LYS2+) (FIG. 2). Transformed yeast were plated on solid agar plates with complete synthetic media lacking uracil (CSM-ura) and containing 2% glucose. Individual colonies harboring the control or PIKFYVE TDP-43 plasmids were recovered. A plasmid containing wild-type TDP-43 under the transcriptional control of the GAL1 promoter and containing the hygromycin-resistance gene as a selectable marker was transformed into the fab1::G418^R pAG416GPD-PIKFYVE yeast strain (FIG. 1). Transformed yeast were plated on CSM-ura containing 2% glucose and 200 μg/mL […] after overnight recovery in media lacking antibiotic. Multiple independent isolates were further evaluated for cytotoxicity and TDP-43 expression levels.
Viability Assay. A control yeast strain with the wild-type yeast FAB1 gene and TDP-43 (“FAB1 TDP-43”, carries empty pAG416 plasmid), and the “PIKFYVE TDP-43” yeast strain, were assessed for toxicity using a propidium iodide viability assay. Both yeast strains were transferred from solid CSM-ura/2% glucose agar plates into 3 mL of liquid CSM-ura/2% glucose media for 6-8 hours at 30° C. with aeration. Yeast cultures were then diluted to an optical density at 600 nm wavelength (OD600) of 0.005 in 3 mL of CSM-ura/2% raffinose and grown overnight at 30° C. with aeration to an OD600 of 0.3-0.8. Log-phase overnight cultures were diluted to OD600 of 0.005 in CSM-ura containing either 2% raffinose or galactose and 150 μL dispensed into each well of a flat bottom 96-well plates. Compounds formulated in 100% dimethyl sulfoxide (DMSO) were serially diluted in DMSO and 1.5 μL diluted compound transferred to the 96-well plates using a multichannel pipet. Wells containing DMSO alone were also evaluated as controls for compound effects. Tested concentrations ranged from 15 μM to 0.11 μM. Cultures were immediately mixed to ensure compound distribution and covered plates incubated at 30° C. for 24 hours in a stationary, humified incubator.
Upon the completion of incubation, cultures were assayed for viability using propidium iodide (PI) to stain for dead/dying cells. A working solution of PI was made where, for each plate, 1 μL of 10 mM PI was added to 10 mL of CSM-ura (raffinose or galactose). The final PI solution (50 μL/well) was dispensed into each well of a new round bottom 96-well plate. The overnight 96-well assay plate was then mixed with a multichannel pipet and 50 μL transferred to the PI-containing plate. This plate was then incubated for 30 minutes at 30° C. in the dark. A benchtop flow cytometer (Miltenyi MACSquant) was then used to assess red fluorescence (B2 channel), forward scatter, and side scatter (with following settings: gentle mix, high flow rate, fast measurement, 10,000 events). Intensity histograms were then gated for “PI-positive” or “PI-negative” using the raffinose and galactose cultures treated with DMSO as controls. The DMSO controls for raffinose or galactose-containing cultures were used to determine the window of increased cell death and this difference set to 100. All compounds were similarly gated and then compared to this maximal window to establish the percent reduction in PI-positive cells.

[2] = target: full-length human PIKFYVE (GST-PIKFYVE) (Homo sapiens (Human), UniProt Q9Y2I7, L932S/Q1183K/Q995L/S1033A/S696N/T998S); assay: PIKfyve biochemical assay (ADP-Glo Kinase assay, Carna Biosciences)
Chain of full-length human PIKFYVE (GST-PIKFYVE) (Q9Y2I7 whole entry S696N/L932S/Q995L/T998S/S1033A/Q1183K, the tested form may be a part): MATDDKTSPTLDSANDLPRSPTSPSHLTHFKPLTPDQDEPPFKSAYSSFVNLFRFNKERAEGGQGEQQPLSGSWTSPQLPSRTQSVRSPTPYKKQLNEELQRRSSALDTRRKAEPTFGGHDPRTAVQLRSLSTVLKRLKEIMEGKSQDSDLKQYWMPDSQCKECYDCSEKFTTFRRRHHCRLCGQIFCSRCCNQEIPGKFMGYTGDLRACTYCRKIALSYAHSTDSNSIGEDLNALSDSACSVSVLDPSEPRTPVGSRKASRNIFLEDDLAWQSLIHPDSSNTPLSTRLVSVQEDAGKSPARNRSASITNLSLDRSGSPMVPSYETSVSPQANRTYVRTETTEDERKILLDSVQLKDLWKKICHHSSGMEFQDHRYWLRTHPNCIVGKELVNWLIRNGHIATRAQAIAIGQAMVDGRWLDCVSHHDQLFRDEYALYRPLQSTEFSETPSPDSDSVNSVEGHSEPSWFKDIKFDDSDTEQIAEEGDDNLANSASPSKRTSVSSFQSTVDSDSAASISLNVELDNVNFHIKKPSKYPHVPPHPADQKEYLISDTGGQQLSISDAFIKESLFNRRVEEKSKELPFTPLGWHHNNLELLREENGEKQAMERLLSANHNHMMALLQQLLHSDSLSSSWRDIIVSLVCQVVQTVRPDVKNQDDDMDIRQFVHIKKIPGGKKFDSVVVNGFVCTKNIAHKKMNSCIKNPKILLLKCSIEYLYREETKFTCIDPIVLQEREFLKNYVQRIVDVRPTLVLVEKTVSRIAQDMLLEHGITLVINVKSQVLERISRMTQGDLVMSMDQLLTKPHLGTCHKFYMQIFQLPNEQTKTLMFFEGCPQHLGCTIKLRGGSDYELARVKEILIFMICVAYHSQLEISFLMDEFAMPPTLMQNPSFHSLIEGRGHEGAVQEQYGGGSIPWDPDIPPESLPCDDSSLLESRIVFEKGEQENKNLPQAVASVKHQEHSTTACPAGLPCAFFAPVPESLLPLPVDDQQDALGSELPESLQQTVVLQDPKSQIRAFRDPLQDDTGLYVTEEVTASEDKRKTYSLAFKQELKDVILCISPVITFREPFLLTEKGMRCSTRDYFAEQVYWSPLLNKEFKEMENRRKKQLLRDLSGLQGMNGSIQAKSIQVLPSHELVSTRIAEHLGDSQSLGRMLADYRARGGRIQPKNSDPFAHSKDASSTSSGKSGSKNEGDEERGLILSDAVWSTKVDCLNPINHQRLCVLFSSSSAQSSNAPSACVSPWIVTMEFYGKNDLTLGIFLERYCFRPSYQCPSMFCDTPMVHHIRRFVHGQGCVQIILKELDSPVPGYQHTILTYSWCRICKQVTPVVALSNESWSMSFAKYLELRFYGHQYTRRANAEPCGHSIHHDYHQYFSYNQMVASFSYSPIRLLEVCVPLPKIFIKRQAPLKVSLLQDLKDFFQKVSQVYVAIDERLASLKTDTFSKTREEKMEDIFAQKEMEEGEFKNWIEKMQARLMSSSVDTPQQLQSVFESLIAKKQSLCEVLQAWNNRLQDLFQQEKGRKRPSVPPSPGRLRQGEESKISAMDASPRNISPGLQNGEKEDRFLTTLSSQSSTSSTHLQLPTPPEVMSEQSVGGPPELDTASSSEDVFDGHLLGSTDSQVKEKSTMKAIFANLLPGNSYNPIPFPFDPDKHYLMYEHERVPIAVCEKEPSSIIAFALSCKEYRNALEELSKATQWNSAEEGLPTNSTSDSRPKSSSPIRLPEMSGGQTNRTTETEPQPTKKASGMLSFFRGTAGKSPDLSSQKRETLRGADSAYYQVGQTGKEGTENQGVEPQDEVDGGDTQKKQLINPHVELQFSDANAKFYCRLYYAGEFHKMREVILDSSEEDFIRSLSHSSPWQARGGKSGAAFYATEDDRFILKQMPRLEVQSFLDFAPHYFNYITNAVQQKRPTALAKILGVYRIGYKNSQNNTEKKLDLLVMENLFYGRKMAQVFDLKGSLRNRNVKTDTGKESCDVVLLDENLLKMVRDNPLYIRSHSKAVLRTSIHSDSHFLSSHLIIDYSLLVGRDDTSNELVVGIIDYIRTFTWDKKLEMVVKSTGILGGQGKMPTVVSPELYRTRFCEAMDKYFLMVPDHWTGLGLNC
Text: PIKfyve Biochemical Assay. The biochemical PIKFyve inhibition assays were run by Carna Biosciences according to proprietary methodology based on the Promega ADP-Glo™ Kinase assay. A full-length human PIKFYVE [1-2098(end) amino acids and S696N, L932S, Q995L, T998S, S1033A and Q1183K of the protein having the sequence set forth in NCBI Reference Sequence No. NP_055855.2] was expressed as N-terminal GST-fusion protein (265 kDa) using baculovirus expression system. GST-PIKFYVE was purified by using glutathione sepharose chromatography and used in an ADP-Glo™ Kinase assay (Promega). Reactions were set up by adding the test compound solution, substrate solution, ATP solution and kinase solution, each at 4× final concentrations. Reactions were prepared with assay buffer (50 mM MOPS, 1 mM DTT, pH7.2), mixed, and incubated in black 384 well polystyrene plates for 1 hour at room temperature. ADP-Glo™ reagent was then added for 40 minutes, followed by kinase detection reagent for an additional 40 minutes. The kinase activity was evaluated by detecting relative light units on a luminescence plate reader. Samples were run in duplicate from 10 μM to 3 nM. […] IC50 values were calculated from concentration vs % inhibition curves by fitting to a four-parameter logistic curve.
The biochemical PIKFyve inhibition assays were run by Carna Biosciences according to proprietary methodology based on the Promega ADP-Glo™ Kinase assay. A full-length human PIKFYVE [1-2098(end) amino acids and S696N, L932S, Q995L, T998S, S1033A and Q1183K of accession number NP_055855.2] was expressed as N-terminal GST-fusion protein (265 kDa) using baculovirus expression system. GST-PIKFYVE was purified by using glutathione sepharose chromatography and used in an ADP-Glo™ Kinase assay (Promega).
Reactions were set up by adding the test compound solution, substrate solution, ATP solution and kinase solution, each at 4× final concentrations. Reactions were prepared with assay buffer (50 mM MOPS, 1 mM DTT, pH7.2), mixed, and incubated in black 384 well polystyrene plates for 1 hour at room temperature. ADP-Glo™ reagent was then added for 40 minutes, followed by kinase detection reagent for an additional 40 minutes. The kinase activity was evaluated by detecting relative light units on a luminescence plate reader. Samples were run in duplicate from 10 uM to 3 nM. […] IC50 values were calculated from concentration vs % inhibition curves by fitting to a four-parameter logistic curve.

[3] = target: PIKfyve (PIKFYVE-NanoLuc fusion in HEK293 cells) (Homo sapiens (Human), UniProt Q9Y2I7); assay: NanoBRET TE Intracellular Kinase Assay, K-8 (Promega) cell-based assay; conditions: 2 hours, read-out: hPIKfyve BRET IC50
Chain of PIKfyve (PIKFYVE-NanoLuc fusion in HEK293 cells) (Q9Y2I7 whole entry, the tested form may be a part): as the sequence (Q9Y2I7 whole entry S696N/L932S/Q995L/T998S/S1033A/Q1183K, the tested form may be a part) above, with N696S, S932L, L995Q, S998T, A1033S, K1183Q counted along it
Method: NanoBRET™ TE Intracellular Kinase Assay, K-8 (Promega) Cell-Based Assay. Intracellular inhibition of PIKfyve was assayed using Promega's NanoBRET™ TE Intracellular Kinase Assay, K-8 according to manufacturer's instructions. A dilution series of test compounds was added for 2 hours to HEK293 cells transfected for a minimum of 20 hours with PIKFYVE-NanoLuc® Fusion Vector (Promega) containing a full-length PIKfyve according to manufacturer's specifications in a 96-well plate. Kinase activity was detected by addition of a NanoBRET™ tracer reagent, which was a proprietary PIKfyve inhibitor appended to a fluorescent probe (BRET, bioluminescence resonance energy transfer). Test compounds were tested at concentrations of 10, 3, 1, 0.3, 0.1, 0.03, 0.01, 0.003 μM. BRET signals were measured by a GloMax®Discover Multimode Microplate Reader (Promega) using 0.3 sec/well integration time, 450BP donor filter and 600LP acceptor filters. Active test compounds that bound PIKfyve and displaced the tracer reduced BRET signal. IC50 values were then calculated by fitting the data to the normalized BRET ratio.

[4] = ADP-Glo, full-length human PIKFYVE, read-out: hPIKfyve IC50

Structure (SMILES) | pIC50 [2, 4] | further results
Cc1cccc(/C=N/Nc2cc(N3CCOCC3)nc(OCCc3ccc(CN)cc3)n2)c1 |  | pIC50 [1]: 5.95
c1ccc(-c2cccc(-c3cc(N4CCOCC4)n4nc(-c5ccncc5)cc4n3)n2)cc1 |  | pIC50 [1]: 6.64
Oc1cc(-c2ccccc2)nn1-c1cc(N2CCOCC2)n2nc(-c3ccncc3)nc2n1 |  | pIC50 [1]: 6.16
Oc1cc(C2CCOCC2)nn1-c1cc(N2CCOCC2)n2nc(-c3ccncc3)cc2n1 |  | pIC50 [1]: 5.04
c1ccc(-c2ccnc(-c3cc(N4CCOCC4)nc(OCc4ccncc4)n3)n2)cc1 |  | pIC50 [1]: 5.84
c1ccc(N2CCc3c(OCc4cccnc4)nc(N4CCOCC4)nc32)cc1 |  | pIC50 [1]: 5.57
Fc1cccc(-c2ccnn2-c2nc(N3CCOCC3)c3ncccc3n2)c1 |  | pIC50 ([2]; values plotted in FIG. 7, read-out: PIKFYVE Biochemistry (IC50)): < 5.00; pIC50 [1]: 5.24
c1ccc(-c2ccn(-c3nc(N4CCOCC4)c4ncccc4n3)n2)cc1 [compound 8, 4-(2-(3-phenyl-1H-pyrazol-1-yl)pyrido[3,2-d]pyrimidin-4-yl)morpholine] | 7.00 to 8.00 | pIC50 [3]: 6.00 to 7.00
c1ccc(-c2ccn(-c3nc(N4CCOCC4)c4ncc(C5CCCCO5)cc4n3)n2)cc1 (centres unmarked) [compound 18, 4-(2-(3-Phenyl-1H-pyrazol-1-yl)-7-(tetrahydro-2H-pyran-2-yl)pyrido[3,2-d]pyrimidin-4-yl)morpholine] | 7.00 to 8.00 | pIC50 [3]: 6.00 to 7.00
c1ccc(-c2ccn(-c3nc(N4CCOCC4)c4ncc(C5CCOCC5)cc4n3)n2)cc1 [compound 20, 4-[2-(3-phenylpyrazol-1-yl)-7-tetrahydropyran-4-yl-pyrido[3,2-d]pyrimidin-4-yl]morpholine] | 7.00 to 8.00 | pIC50 [3]: 6.00 to 7.00
C1=C(c2cnc3c(N4CCOCC4)nc(-n4ccc(-c5ccccc5)n4)nc3c2)CCOC1 [compound 21, 4-(7-(3,6-dihydro-2H-pyran-4-yl)-2-(3-phenyl-1H-pyrazol-1-yl)pyrido[3,2-d]pyrimidin-4-yl)morpholine] | 7.00 to 8.00 | pIC50 [3]: 7.00 to 8.00
c1ccc(-c2ccn(-c3nc(N4CCOCC4)c4ncc(C5CCCO5)cc4n3)n2)cc1 (centres unmarked) [compound 22, 4-(2-(3-phenyl-1H-pyrazol-1-yl)-7-(tetrahydrofuran-2-yl)pyrido[3,2-d]pyrimidin-4-yl)morpholine] | 7.00 to 8.00 | pIC50 [3]: 6.00 to 7.00
Cc1cccc(/C=N/Nc2nc(N3CCOCC3)c3ncccc3n2)c1 [compound 24, (E)-4-(2-(2-(3-methylbenzylidene)hydrazinyl)pyrido[3,2-d]pyrimidin-4-yl)morpholine] | 7.00 to 8.00 | pIC50 [3]: 7.00 to 8.00
c1cnc2c(N3CCOCC3)nc(-c3ccnc(N4CCOCC4)n3)nc2c1 [compound 51, 4-[4-(4-morpholinopyrido[3,2-d]pyrimidin-2-yl)pyrimidin-2-yl]morpholine] | 5.00 to 6.00 | 
CC(C)(C)OC(=O)N1CCN(c2nccc(-c3nc(N4CCOCC4)c4ncccc4n3)n2)CC1 [compound 55, tert-butyl 4-[4-(4-morpholinopyrido[3,2-d]pyrimidin-2-yl)pyrimidin-2-yl]piperazine-1-carboxylate] | 5.00 to 6.00 | 
c1cncc(Cc2nc(N3CCOCC3)c3ncccc3n2)c1 [compound 72] | 7.00 to 8.00 | 

Structure (SMILES) | pIC50 [2, 4] | further results
O=C(c1cccnc1)c1nc(N2CCOCC2)c2ncccc2n1 [compound 73] | 6.00 to 7.00 | 
c1coc(-c2nc(N3CCOCC3)c3ncccc3n2)c1 [compound 74] | 6.00 to 7.00 | 
c1cncc(Oc2nc(N3CCOCC3)c3ncccc3n2)c1 [compound 75] | 7.00 to 8.00 | 
Cc1cccc(CCNc2nc(N3CCOCC3)c3ncc(C(O)c4cccnc4)cc3n2)c1 (centres unmarked) [compound 76] | 6.00 to 7.00 | 
Cc1cccc(CCNc2nc(N3CCOCC3)c3ncc(C(=O)c4cccnc4)cc3n2)c1 [compound 77] | 6.00 to 7.00 | 
Cc1cccc(CCNc2nc(N3CCOCC3)c3ncc(Cc4cccnc4)cc3n2)c1 [compound 78] | 6.00 to 7.00 | 
Clc1nc(N2CCOCC2)c2ncc(Cc3cccnc3)cc2n1 [compound 82] | 5.00 to 6.00 | 
Fc1cccc(Nc2nc(N3CCOCC3)c3ncc(Cc4cccnc4)cc3n2)c1 [compound 83] | 5.00 to 6.00 | 
c1ccc(Oc2nc(N3CCOCC3)c3ncc(Cc4cccnc4)cc3n2)cc1 [compound 84] | 5.00 to 6.00 | 
c1ccc(-c2nccc(-c3nc(N4CCOCC4)c4ncc(Cc5cccnc5)cc4n3)n2)cc1 [compound 85] | 6.00 to 7.00 | 
Fc1cccc(-c2nccc(-c3nc(N4CCOCC4)c4ncc(Cc5cccnc5)cc4n3)n2)c1 [compound 86] | 6.00 to 7.00 | 
c1ccc(Nc2nc(N3CCOCC3)c3ncc(C4CCCO4)cc3n2)cc1 (centres unmarked) [compound 87] | 6.00 to 7.00 | 
c1ccc(Oc2nc(N3CCOCC3)c3ncc(C4CCCO4)cc3n2)cc1 (centres unmarked) [compound 88] | 5.00 to 6.00 | 
Cc1cccc(/C=N/Nc2nc(N3CCOCC3)c3nc(-c4ccncc4)n(C)c3n2)c1 [drawing 308] |  | pIC50 [1]: 5.33
Cc1cccc(/C=N/Nc2nc(N3CCOCC3)c3ncccc3n2)c1 [drawing 311] |  | pIC50 [1]: 5.09
